Measurements published in patent US6924288B2, “Enantiomerically pure opioid diarylmethylpiperzine and methods of using same” (priority 2001, dated 2005).

How the values were obtained:
[1] = target: T1, δ opioid receptor (Rattus norvegicus, UniProt P33533); assay: Radioligand binding, [3H]Deltorphin II competition, rat brain membranes; settings: read-out: Rat Brain Membrane K1 (nM) δ
T1 construct: tissue Pel-Freeze Biological Inc. (Rogers, Ark.); host or cells: rat whole brain membranes
Description: (§1) Two stereoisomerically related racemic mixtures and inclusive enantiomers were evaluated for in vitro opioid receptor affinity in rat brain membranes (μ and δ opioid) and guinea pig cerebellum (κ opioid receptor). Membranes for radioligand binding were prepared from either rat whole brain or guinea pig cerebellum, supplied by Pel-Freeze Biological Inc. (Rogers, Ark.). Tissues were homogenized in 50 mM TRIS (Tris[hydrooxymethyl]aminomethane) buffer (pH 7.4) containing 50 ug/ml soybean trypsin inhibitor, 1 mM EDTA (Ethylenediaminetetraacetic acid), and 100 μM PMSF (Phenylmethylsulfonyl fluoride). The homogenized brain tissues were centrifuged at 500×g for 30 minutes (4° C.) to remove large debris. The supernatant was polytronically sonicated for 10 seconds (P.E. setting of 2, 4° C.). Sucrose solution was then added to a final concentration of 0.35 M using a 10 mM TRIS-Sucrose buffer (pH 7.4) and the brain membranes were then centrifuged at 40,000×g for 30 minutes (4° C.). The membrane pellets were then washed twice in 10 mM TRIS buffer (pH 7.4) containing 50 μg/ml soybean trypsin inhibitor, 1 mM EDTA, and 100 μM PMSF.
(§2) Radioligand binding assays were performed in 10 mM TRIS buffer (pH 7.4) containing 50 μg/ml soybean trypsin inhibitor, 1 mM EDTA, 5 mM MgCl2, and 100 μM PMSF. Tritium-labeled DAMGO (μ), Deltorphin II (δ), or U69593 (κ) purchased from New England Nuclear were used as ligands in competitive experiments (2-3×10^−10 M final concentrations) with non-specific binding defined by 0.5×10^−6 M Naloxone (purchased from SIGMA Chemical Co.). All binding assays were run at room temperature for 90 minutes and then terminated by rapid filtration on GF/C glass fiber filters (Whatman, Hillsboro, Oreg.) with 50 mM TRIS buffer (4° C., pH 7.4) employing a Brandel Semi-automatic Cell Harvester (Model M48, Brandel, Gaithersburg, Md.). The filters were washed twice with 50 mM TRIS buffer (4° C., pH 7.4) and the filters were placed in liquid scintillation cocktail and the bound radioactivity counted on a Beckman LS 6500 scintillation counter. The potency of the compounds in inhibiting the binding of radiolabelled DAMGO (μ), Deltorphin II (δ), or U69593 (κ) was determined from full concentration-effect curves. With the computer program Prism (GraphPad Software Inc., San Diego, Calif.) the IC50 values were determined using a one-site nonlinear regression analysis of the radioligand binding data. The IC50 values were then converted to Ki values using the Cheng-Prusoff equation. (Cheng Y and Prusoff W H (1973) Relationship between the inhibition constant (K1) and the concentration of inhibitor which causes 50 percent inhibition (I50) of a enzymatic reaction. Biochem Pharm 22:3099-3108.)

[2] = target: T2, κ opioid receptor (Cavia porcellus, UniProt P41144); assay: Radioligand binding, [3H]U69593 competition, guinea pig cerebellum membranes; settings: read-out: Guinea Pig Brain Membrane K1 (nM) κ
T2 construct: tissue Pel-Freeze Biological Inc. (Rogers, Ark.); host or cells: guinea pig cerebellum membranes
Description: as §1, §2

[3] = target: T3, μ opioid receptor (Rattus norvegicus, UniProt P33535); assay: Radioligand binding, [3H]DAMGO competition, rat brain membranes; settings: rat brain membranes, [3H]DAMGO; read-out: Rat Brain Membrane K1 (nM) μ
T3 construct: tissue Pel-Freeze Biological Inc. (Rogers, Ark.); host or cells: rat whole brain membranes
Description: as §1, §2

[4] = tested on: rats; assay: Tail pinch test for analgesia in rats; format: in vivo; settings: rat; for Analgesia (delay of response to tail pinch): 0.30 mg/kg i.v., cutoff 20 sec; for ED50: intravenous, 20 sec cutoff; for ED50 / Analgesic effect in words: tail pinch; for Analgesic effect in words: i.v., FIGS. 1-6
Description: (§3) Analgesia was assayed in rats using the tail pinch test with simultaneous monitoring of capillary blood gases (pCO2). During this testing period respiratory depression values were also obtained. Male rats (Wistar Hannover 200-300 g) were anesthetized with 2% isoflurane (J. A. Webster, Inc., Sterling, Mass. The femoral artery was cannulated with PE50 tubing for blood sampling. The external jugular vein was also cannulated with Silastic tubing for drug injection. After surgery, anesthetic gases were removed and the rat was allowed to rest in a plastic restrainer for 60 minutes to establish baseline values of blood gases.
(§4) The compounds 1-6 were administered intravenous. Nociceptive response and respiratory values were obtained for a 1-2 hour period. The femoral artery cannulation was used to draw arterial blood into a syringe pre-wetted with heparin. Samples were then analyzed with a blood gas analyzer (Ph/Gas Analyzer Synthesis 25 Model, Instrumentation Laboratory) to assess respiratory depression effects. The volume of blood taken each time was 0.15 cc. The syringes were capped immediately and the blood gases analyzed within 5 minutes. The blood exposed to air at the tip of the syringe was expelled. The blood was mixed by gentle inversion and an aliquots of 0.10 cc was injected into the blood gas analyzer.
An artery clamp was placed on the tail (one inch from the tip of the tail) for a short duration until an escape response occurred (i.e. tail-flick or vocalization). The escape response latency was recorded by means of a stopwatch. A cutoff time of 20 sec. was used to prevent unnecessary tissue damage. […] The elapsed time to elicit a pain response was recorded as the tail pinch latency in seconds. Blood gases were monitored at approximately the same time points as the tail pinch test.
(§5) The ED50 values for analgesia potency and respiratory depression were determined to calculate the safety or therapeutic ratio, which is defined as the respiratory depression ED50 divided by analgesia ED50.

[5] = tested on: rats; assay: Respiratory depression by blood gas (pCO2) monitoring in rats; format: in vivo; settings: rat; for Respiratory Depression % Units Baseline pCO2: 0.30 mg/kg i.v.; for Safety Ratio (respiratory depression ED50 divided by analgesia ED50): intravenous; for Mortality due to respiratory depression / Effect on blood pCO2 levels in words: i.v.
Description: as §3, §4
(§6) The gas analyzer was well maintained and operated. Calibrations (low, normal and high) were done at the beginning of every day of testing. The sample lines, co-oximeter and the blood gas electrode were cleaned regularly at the end of every day of testing. Hematocrit calibration (high and low) was scheduled on a weekly basis and tubing, sample and pinch valve were replaced on a monthly basis.
as §5

[6] = as above; format: in vivo; settings: male, Wistar Hannover, in vivo; rat, intravenous
Description: as §3, §4, §6, §5

[7] = target: T4, Mu receptor, mouse vas deferens (Mus musculus, UniProt P42866); assay: Mouse vas deferens, inhibition of electrically induced contractions, mu (with TIPP and nor-BNI); format: cell-based; settings: in presence of 3 μM TIPP and 15 nM nor-BNI; read-out: Mouse Vas Deferens ED50 (nM) μ
T4 construct: Mouse vasa deferentia (MVD), CD-1 strain, Harlan, Raleigh, N.C.) were removed from mice; tissue Harlan, Raleigh, N.C; (animals); host or cells: mouse vas deferens, CD-1 strain

[8] = target: T5, Delta receptor, mouse vas deferens (Mus musculus, UniProt P32300); assay: Mouse vas deferens, inhibition of electrically induced contractions, delta; format: cell-based; settings: read-out: Mouse Vas Deferens ED50 (nM) δ
T5 construct: Mouse vasa deferentia (MVD), CD-1 strain, Harlan, Raleigh, N.C.) were removed from mice; tissue Harlan, Raleigh, N.C; (animals); host or cells: mouse vas deferens, CD-1 strain
Description: The compound of formula (I) and compounds 1, 3, 4, 5 and 6 as identified above, were evaluated for in vitro opioid receptor activity in various receptor systems, including mouse vas deferens (Mouse Vas Deferens ED50), and guinea pig ileum (Guinea Pig Ileum ED50). The assay procedures used for such determinations of receptor activity are set out below.
In vitro bioassays: Mouse vasa deferentia (MVD), CD-1 strain, Harlan, Raleigh, N.C.) were removed from mice and suspended between platinum electrodes with 0.5 g of tension in organ bath chambers containing a modified Mg^++ free Krebs buffer of the following composition (millimolar): NaCl, 117.5; KCl, 4.75; CaCl2, 2.6; KH2PO4, 1.20; NaHCO3, 24.5; and glucose, 11. The buffer was saturated with 95% O2/5% CO2 and kept at 37° C. Tissues were stimulated at supramaximal voltage with 10-Hz pulse trains for 400-msec.; train interval 10 seconds; and 1.0 msec pulse duration at maximal voltage. Delta receptor activity was determined by adding appropriate concentrations of test compound to organ baths and allowing a maximal response before addition of the next higher concentration.
The ED50 values were extrapolated from curves showing the dose concentration plotted against the response (J. A. H. Lord, A. A. Waterfield, J. Hughes, H. W. Kosterlitz, Nature 267, 495, (1977)).

Compound `C=CCN1C[C@@H](C)N([C@@H](c2ccsc2)c2cccc(O)c2)C[C@@H]1C` (racemic) [Compound 1, (±)3-((R*)-((2R*,5S*)-4-allyl-2,5-dimethyl-1-piperazinyl)(3-thienyl)methyl)phenol] has a Ki [1] of 1.29 nM, a Ki [2] of 1.67 nM and a Ki [3] of 0.36 nM. The “Analgesia (delay of response to tail pinch)” value ([4]; 4 min.) was 19.5 s, the “Analgesia (delay of response to tail pinch)” value ([4]; 8 min.) was 10.5 s and the “Analgesia (delay of response to tail pinch)” value ([4]; 32 min.) was 1 s. The ED50 [4] was 0.21 mg/kg, the “Respiratory Depression % Units Baseline pCO2” value ([5]; 4 min.) was 21% and the “Respiratory Depression % Units Baseline pCO2” value ([5]; 8 min.) was 25%. The “Respiratory Depression % Units Baseline pCO2” value ([5]; 32 min.) was 7%, the “Safety Ratio (respiratory depression ED50 divided by analgesia ED50)” value [5] was 4.7 and the ED50 [6] was 0.98 mg/kg. For the same compound, the EC50 [7] was 881 nM and the EC50 [8] was 30 nM.
`C=CCN1C[C@H](C)N([C@@H](c2ccsc2)c2cccc(O)c2)C[C@H]1C` (racemic) [Compound 4, (±)3-((R*)-((2S*,5R*)-4-allyl-2,5-dimethyl-1-piperazinyl)(3-thienyl)methyl)phenol] gave a Ki [1] of 14.9 nM, a Ki [2] of 2.34 nM and a Ki [3] of 0.18 nM. The “Analgesia (delay of response to tail pinch)” value ([4]; 4 min.) was 20 s, the “Analgesia (delay of response to tail pinch)” value ([4]; 8 min.) was 20 s and the “Analgesia (delay of response to tail pinch)” value ([4]; 32 min.) was 10 s. For the same compound, the ED50 [4] was 0.05 mg/kg, the “Respiratory Depression % Units Baseline pCO2” value ([5]; 4 min.) was 117% and the “Respiratory Depression % Units Baseline pCO2” value ([5]; 8 min.) was 91%. The “Respiratory Depression % Units Baseline pCO2” value ([5]; 32 min.) was 43%, the “Mortality due to respiratory depression” value [5] was “several of the test subjects died” and the “Safety Ratio (respiratory depression ED50 divided by analgesia ED50)” value [5] was 2.4. For the same compound, the ED50 [6] was 0.12 mg/kg, the EC50 [7] was 170 nM and the EC50 [8] was 58 nM.
For `C=CCN1C[C@@H](C)N([C@@H](c2ccsc2)c2cccc(O)c2)C[C@@H]1C` (relative stereo) [Compound 1, (±)3-((R*)-((2R*,5S*)-4-allyl-2,5-dimethyl-1-piperazinyl)(3-thienyl)methyl)phenol], the “Analgesic effect in words” value [4] was “only limited analgesia for a short time”.
In the case of `C=CCN1C[C@@H](C)N([C@@H](c2ccsc2)c2cccc(O)c2)C[C@@H]1C` [Compound 3, (+)3-((R)-((2R,5S)-4-allyl-2,5-dimethyl-1-piperazinyl)(3-thienyl)methyl)phenol], the Ki [1] was 744 nM, the Ki [2] was 100 nM and the Ki [3] was 658 nM. For the same compound, the “Analgesia (delay of response to tail pinch)” value ([4]; 4 min.) was 0 s, the “Analgesia (delay of response to tail pinch)” value ([4]; 8 min.) was 0 s and the “Analgesia (delay of response to tail pinch)” value ([4]; 32 min.) was 0 s. The “Analgesic effect in words” value [4] was “no measurable analgesic effect”, the ED50 [4] was greater than 6 mg/kg and the “Respiratory Depression % Units Baseline pCO2” value ([5]; 4 min.) was 0%. The “Respiratory Depression % Units Baseline pCO2” value ([5]; 8 min.) was 0%, the “Respiratory Depression % Units Baseline pCO2” value ([5]; 32 min.) was 0% and the “Effect on blood pCO2 levels in words” value [5] was “no effect on blood pCO2 levels”. The ED50 [6] was greater than 6 mg/kg, the EC50 [7] was greater than 1000 nM and the EC50 [8] was greater than 1000 nM.
Compound `C=CCN1C[C@H](C)N([C@@H](c2ccsc2)c2cccc(O)c2)C[C@H]1C` [Compound 5, (+)-3-((R)-((2S,5R)-4-allyl-2,5-dimethyl-1-piperazinyl)(3-thienyl)methyl)phenol] has a Ki [1] of 113 nM, a Ki [2] of 1.73 nM and a Ki [3] of 0.75 nM. The “Analgesia (delay of response to tail pinch)” value ([4]; 4 min.) was 20 s, the “Analgesia (delay of response to tail pinch)” value ([4]; 8 min.) was 20 s and the “Analgesia (delay of response to tail pinch)” value ([4]; 32 min.) was 20 s. The ED50 [4] was 0.03 mg/kg, the “Respiratory Depression % Units Baseline pCO2” value ([5]; 4 min.) was 120% and the “Respiratory Depression % Units Baseline pCO2” value ([5]; 8 min.) was 78%. For the same compound, the “Respiratory Depression % Units Baseline pCO2” value ([5]; 32 min.) was 45%, the “Mortality due to respiratory depression” value [5] was “several of the test subjects died” and the “Safety Ratio (respiratory depression ED50 divided by analgesia ED50)” value [5] was 2.2. It also gave an ED50 [6] of 0.067 mg/kg, an EC50 [7] of 79.3 nM and an EC50 [8] of 1.3 nM.
With `C=CCN1C[C@@H](C)N([C@H](c2ccsc2)c2cccc(O)c2)C[C@@H]1C` [Compound 6, (−)3-((S)-((2R,5S)-4-allyl-2,5-dimethyl-1-piperazinyl)(3-thienyl)methyl)phenol] the Ki [1] was 13 nM, the Ki [2] was 16 nM and the Ki [3] was 60 nM. The “Analgesia (delay of response to tail pinch)” value ([4]; 4 min.) was 0 s, the “Analgesia (delay of response to tail pinch)” value ([4]; 8 min.) was 0 s and the “Analgesia (delay of response to tail pinch)” value ([4]; 32 min.) was 0 s. The “Analgesic effect in words” value [4] was “no measurable analgesic effect”, the ED50 [4] was greater than 6 mg/kg and the “Respiratory Depression % Units Baseline pCO2” value ([5]; 4 min.) was 0%. For the same compound, the “Respiratory Depression % Units Baseline pCO2” value ([5]; 8 min.) was 0%, the “Respiratory Depression % Units Baseline pCO2” value ([5]; 32 min.) was 0% and the “Effect on blood pCO2 levels in words” value [5] was “no effect on blood pCO2 levels”. For the same compound, the ED50 [6] was greater than 6 mg/kg, the EC50 [7] was greater than 1000 nM and the EC50 [8] was 282 nM.
